Data on five compounds can be found in paper PMC9883540, “Study on pharmacokinetic interactions between SHR2554 and itraconazole in healthy subjects: A single‐center, open‐label phase I trial” (Cancer Medicine, 2022).

“And” between values parts separate entries of the source, which are not always exact repeats. Identical values can stand only once. “Also recorded” adds a separate entry of the source. Like-named read-outs stand apart in the source and are kept apart here.

The conditions of data set [1]: cited from earlier work.
In data set [2] the test system is wild‐type and mutant EZH2 enzymes. Particulars: no method or reference given; cited from earlier work.
For a further data set, the system named is tumor. Particulars: same dose; no reference given; cited from earlier work.
For data set [3], the system named is CYP3A4. The note with it: preclinical test, no method or reference given; cited from earlier work.
Data set [4] deals with CYP3A4. Particulars: sponsor's preclinical studies, no method or reference given; cited from earlier work.
The conditions of data set [5]: in vivo. As for the experimental part:
Eighteen volunteers were recruited for the study. The subjects were orally administered SHR2554 at a 50 mg daily dose (Day 1); then, they were orally administered itraconazole 200 mg Quaque Die (QD) for 4 days (Days 4–7) followed by co‐administration of itraconazole 200 mg and SHR2554 50 mg (Day 8). They took itraconazole 200 mg QD for 4 days (Days 9–12). All subjects were fasted for at least 10 h, and they ate a standard meal in 30 min before drug administration. Water was forbidden within 1 h after drug administration, and the subjects were fasted for at least 4 h after drug administration.
Safety evaluation included adverse events, laboratory tests, physical examination, measurement of vital signs, 12‐lead electrocardiogram, etc. All abnormal and clinically significant laboratory results were followed up until they returned to normal.

Another data set concerns Caco‐2 cell model. Details: method as in PMID 34498807. The note with it: preclinical results; cited from earlier work.
The subject of data set [6] is CYP3A4. The note with it: preclinical test, no method or reference given; cited from earlier work. The source holds these as a separate data set.
For data set [7] the following is noted: cited from earlier work. This is another data set of the same source.
The nature of data set [8]: Pharmacokinetic interaction study of itraconazole on SHR2554, plasma SHR2554 by HPLC-MS/MS. It is filed as in vivo, human. Particulars: for AUC0–t / AUC0–∞ / C max: plasma SHR2554, mean ± SD. As for the experimental part:
Eighteen volunteers were recruited for the study. […] The samples of venous blood (4 ml) were collected into heparinized Vacutainer™ tubes and mixed gently. […] Thereafter, plasma was separated by centrifugation (2000g at 4°C for 10 min) within 1 h of sample collection and then stored at −80°C before analyses. The plasma concentrations of SHR2554 were determined by a validated method with sensitivity and specificity using high‐performance liquid chromatography–tandem mass spectrometry (HPLC‐MS/MS) by Shanghai InnoStar Bio‐tech Co. Ltd. Blood samples were pretreated by protein precipitation with acetonitrile. Biological sample analysis was performed using SHR149633 (free base) as an internal standard. Separation of SHR2554 was carried out using a […] ZORBAX Extend‐C18 column (2.1 × 50 mm, 1.8 μm), and analytes were detected on an AB SCIEX QTRAP 5500 mass spectrometer. The assay was linear over the range of 1–2000 ng·ml^−1. […] Plasma samples are stable under various conditions. The PK parameters were evaluated using Phoenix WinNonlin v8.1. Statistical analysis was performed with SAS v9.2 (SAS Institute). Descriptive statistics and tabulation of PK parameters for analytes were performed, and mean concentration‐time curves were plotted. After natural log transformation, the PK parameters were fitted with a mixed‐effects model. In the mixed‐effects model analysis, medication (itraconazole combined with SHR2554 or SHR2554 alone) was used as a fixed effect, and the participants in the model fitting were used as random effects. The corrected least‐square mean difference and 90% confidence interval (CI) between the administration of a single drug (SHR2554) alone and a combination drug (co‐administration of SHR2554 and itraconazole) were obtained. The corrected least‐square mean difference and its 90% confidence interval were converted to the adjusted geometric mean ratios (GMRs) (co‐administration of SHR2554 and itraconazole/SHR2554 alone) and its 90% confidence interval by taking the antilog.

Data set [9] deals with cell H3K27Me3 and cell proliferation. Details: method as in PMID 34503063. Particulars: cited from earlier work.
For data set [10] the following is noted: cited from earlier work. The source holds these as a separate data set.
The mark [11] stands for this setting: completed or ongoing clinical trials of SHR2554, reference not given.
The mark [12] stands for this setting: SHR2554 50 mg co-administered with itraconazole 200 mg (Day 8), fed, mean ± SD.
Setting [13] is: SHR2554 50 mg co-administered with itraconazole 200 mg (Day 8), fed.
[14] abbreviates: SHR2554 50 mg single oral dose alone (Day 1), fed, mean ± SD.
[15] abbreviates: SHR2554 50 mg single oral dose alone (Day 1), fed.
[16] abbreviates: SHR2554 50 mg, itraconazole 200 mg, 90% CI in brackets.

In the case of `CCc1c(N(CC)C2CCOCC2)cc2oc(CN3CCCCC3)cc2c1C(=O)NCc1c(C)cc(C)[nH]c1=O` [SHR2554], in data set [1] (350 mg group, ref NCT03603951), the “subjects with grade four neutropenia reported as SAE/DLT” value is reported as “one”. In addition, the “subjects with grade three and four decreased platelet counts reported as SAE/DLT” value in data set [1] (400 mg BID group, as of January 3, 2020, ref NCT03603951) is given as “two”. In addition, the “safety at doses below 300 mg BID (including 300 mg BID)” value in data set [1] (no drug-related SAE or DLT, previous clinical studies, ref NCT03603951) is “good and good safety profile”. For the same compound, in data set [1] (previous clinical studies, ref NCT03603951), the “recommended phase II dose” value was 350 mg BID. For the same compound, in data set [1] (range of 50–400 mg BID, ref NCT03603951), the “increase of exposure relative to increase of dose” value is given as “higher than that of the administered dose”. Moreover, the “subjects with grade two anemia reported as SAE” value in [1] (ref NCT03741712) is reported as “one”. The “inhibition of the activity of wild-type and mutant EZH2 enzymes” value in data set [2] was “potently inhibits”. Moreover, in the data set on tumor, the “serum and tumor systemic exposure as fraction of that of EPZ-6438” value is “about one‐fifth”; the “tumor inhibition rate relative to the reference compound EPZ-6438” value is given as “higher”. Further, the “inhibitory effect on CYP3A4” value with CYP3A4 [3] is on record as “weak inhibitory effect”. In addition, the “enzyme catalysing the oxidative metabolism” value in the data set with CYP3A4 [4] is “mainly metabolized by CYP3A4; also recorded: mainly catalyzed by CYP3A4”. For the same compound, in [5], the “Itraconazole‐related TEAEs, Cases” value stood at 2; the “Itraconazole‐related TEAEs, Number of subjects (%)” value is reported as 2 (11.1); the “SHR2554‐related TEAEs, Cases” value worked out at 12; the “SHR2554‐related TEAEs, Number of subjects (%)” value is 9 (50.0). For the same compound, in [5], the “TEAEs, Cases” value is 13; the “TEAEs, Number of subjects (%)” value is 9 (50.0); the “TEAEs, Total” value is recorded as 9 (50.0); the “TEAEs: All kinds of inspection” value was 8 (44.4). Besides, in data set [5], the “TEAEs: Appendicitis” value was determined as 0, the “TEAEs: Blood in the urine” value was 2 (11.1), the “TEAEs: Cardiac organ diseases” value is on record as 1 (5.6) and the “TEAEs: Hematuria” value is recorded as 1 (5.6). In [5], the “TEAEs: High blood uric acid” value is 1 (5.6), the “TEAEs: Increased blood bilirubin” value is 0, the “TEAEs: Increased blood triglyceride” value is given as 4 (22.2) and the “TEAEs: Increased heart rate” value is recorded as 1 (5.6). Further, in data set [5], the “TEAEs: Infectious diseases” value came to 0; the “TEAEs: Kidney and urinary system diseases” value is reported as 2 (11.1); the “TEAEs: Positive bacterial tests” value was 2 (11.1); the “TEAEs: Positive urine leukocyte” value amounted to 0. In addition, in data set [5], the “TEAEs: Rash” value is 0; the “TEAEs: Skin and subcutaneous tissue diseases” value is recorded as 0; the “TEAEs: Spermaturia” value is on record as 1 (5.6); the “TEAEs: Supraventricular extrasystole contraction” value is 1 (5.6). Further, the “drug-related TEAEs, Cases” value in [5] stood at 16. The permeability result in the data set on Caco‐2 cell model was “low permeability”. Also, the “induction of the expression of the CYP3A4 enzyme” value with CYP3A4 [6] is reported as “only high concentration SHR2554 can induce”. Further, the “electrocardiogram finding in some subjects” value in data set [7] (completed or ongoing clinical trials of SHR2554, clinically controllable, no reference given) is on record as “prolongation of the QT interval of the electrocardiogram”. Besides, in data set [7] (setting [11]), the “most common drug-related TEAEs in hematology” value is “decreased white blood cell count, thrombocytopenia, neutropenia, and hyperlipidemia, increased aspartate aminotransferase level, hypertension, elevated alanine aminotransferase, anemia”; the “non-hematological common drug-related TEAEs” value is “nausea and fatigue”. In data set [8] (setting [12]), the “CL/F (apparent clearance)” value amounted to 98.4 ± 46.96 L/h and the “t 1/2 (elimination half-life)” value is recorded as 8.678 ± 3.6031 h. In [8] (setting [13]), the “AUC0–t” value was determined as 612.13 ± 315.720 ng·h/mL and the “AUC0–∞” value was 641.53 ± 319.538 ng·h/mL. In addition, the C max in [8] (SHR2554 50 mg co-administered with itraconazole 200 mg (Day 8; itraconazole 200 mg QD Days 4-12), fed) amounted to 70.538 ± 25.0219 ng/mL. Also, in data set [8] (SHR2554 50 mg combined with itraconazole 200 mg), the “plasma concentration of all subjects at 96 h” value was “below LLOQ”. Further, in data set [8] (setting [14]), the “AUC_%Extrap (percentage of AUCINF_pred due to extrapolation from Tlast to infinity)” value is 14.498 ± 2.9731 (20.51) [N = 8] %; the “CL/F (apparent clearance)” value was 2127.7 ± 1592.02 L·h^−1 and 2127.7 ± 1592.02 (74.82) [N = 18] L·h^−1; the T max was 1.472 ± 0.6286 (0.50, 3.00) [N = 18] h; the “V z /F” value was 8439.2 ± 3779.31 (44.78) [N = 18] L. The “t 1/2 (elimination half-life)” value in [8] (setting [14]) was 3.287 ± 1.0636 (1.76, 5.94) [N = 18] h. Besides, in [8] (setting [15]), the “AUC0–t” value is 28.70 ± 18.913 (65.90) [N = 18] h·ng·ml^−1, the “AUC0–∞” value is 50.99 ± 19.358 (37.97) [N = 8] h·ng·ml^−1 and the C max is 10.197 ± 7.0262 (68.91) [N = 18] ng·ml^−1. In addition, in data set [8] (setting [16]), the “adjusted geometric mean ratio of SHR2554 AUC0–t (co-administration with itraconazole / SHR2554 alone)” value is on record as 23.75 fold, the “adjusted geometric mean ratio of SHR2554 AUC0–∞ (co-administration with itraconazole / SHR2554 alone)” value stood at 12.47 fold and the “adjusted geometric mean ratio of SHR2554 C max (co-administration with itraconazole / SHR2554 alone)” value is given as 7.73 fold. For the same compound, in [8] (single-dose phase of SHR2554 50 mg, assay range 1–2000 ng·ml^−1), the “plasma concentration of all subjects at 24 h after administration” value is “below lower limit of quantitation”. Moreover, in data set [9], the “IC50 for inhibiting cell H3K27Me3 and cell proliferation, relative to EPZ-6438” value is recorded as “comparable or even better”; the “anti-tumor activity in vitro, relative to EPZ-6438 (tazemetostat)” value is “comparable”.
As for `CCC(C)n1ncn(-c2ccc(N3CCN(c4ccc(OCC5COC(Cn6cncn6)(c6ccc(Cl)cc6Cl)O5)cc4)CC3)cc2)c1=O` (stereo not shown) [Itraconazole, itraconazole], in data set [5] (human), the “Itraconazole‐related TEAEs, Cases” value is 2; the “Itraconazole‐related TEAEs, Number of subjects (%)” value is listed as 2 (11.1); the “SHR2554‐related TEAEs, Cases” value is given as 1; the “SHR2554‐related TEAEs, Number of subjects (%)” value is listed as 1 (5.6). In [5] (human), the “TEAEs, Cases” value is on record as 2; the “TEAEs, Number of subjects (%)” value was 2 (11.1); the “TEAEs, Total” value is reported as 2 (11.1); the “TEAEs: All kinds of inspection” value is given as 1 (5.6). In data set [5] (human), the “TEAEs: Appendicitis” value is 0, the “TEAEs: Blood in the urine” value turned out to be 0, the “TEAEs: Cardiac organ diseases” value worked out at 0 and the “TEAEs: Hematuria” value is recorded as 0. For the same compound, in [5] (human), the “TEAEs: High blood uric acid” value was found to be 0, the “TEAEs: Increased blood bilirubin” value was determined as 0, the “TEAEs: Increased blood triglyceride” value is on record as 1 (5.6) and the “TEAEs: Increased heart rate” value is 0. Also, in data set [5] (human), the “TEAEs: Infectious diseases” value is given as 0; the “TEAEs: Kidney and urinary system diseases” value was 0; the “TEAEs: Positive bacterial tests” value turned out to be 0; the “TEAEs: Positive urine leukocyte” value stood at 0. In addition, in data set [5] (human), the “TEAEs: Rash” value was 1 (5.6); the “TEAEs: Skin and subcutaneous tissue diseases” value is listed as 1 (5.6); the “TEAEs: Spermaturia” value came out at 0; the “TEAEs: Supraventricular extrasystole contraction” value is 0. In addition, in [5] (human), the “drug-related TEAEs, Cases” value came out at 6. In addition, the “drug-related TEAEs, Cases” value in data set [5] is listed as “six”.
With `CCN(c1cc(-c2ccc(CN3CCOCC3)cc2)cc(C(=O)NCc2c(C)cc(C)[nH]c2=O)c1C)C1CCOCC1` [tazemetostat, reference compound], in data set [7], the “adverse effects in clinical trial” value is “thrombocytopenia, neutropenia, and anemia”.
Take `CC[C@H](C)n1cc(C)c2c(C(=O)NCc3c(C)cc(C)[nH]c3=O)cc(-c3ccc(N4CCNCC4)nc3)cc21` [GSK2816126, reference compound]: the “most common adverse reactions in clinical trial” value in data set [7] was “fatigue and nausea”.
With `CC[C@H](C)C(=O)O[C@H]1C[C@@H](C)C=C2C=C[C@H](C)[C@H](CC[C@@H](O)C[C@@H](O)CC(=O)O)[C@H]21` [lovastatin (acid)], the “change in the AUC with itraconazole” value is 15 fold in [10] (itraconazole dose 100 mg) and 20 fold in data set [10] (itraconazole dose 200 mg).
